Measurements from ChEMBL document CHEMBL1201862, “PubChem BioAssay data set” (2004).
Calls of active or inactive are those of the source.

Legend:
[1] = target: Cytochrome P450 2C19 (Homo sapiens, UniProt P33261); experiment: Cytochrome panel assay with activity outcomes. Panel member name: p450-cyp2c19 Compounds with AC50 equal or less than 10 uM are considered active; assay type: functional
[2] = target: Cytochrome P450 3A4 (Homo sapiens, UniProt P08684);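 further: CYP3A4 tested as one member of a cytochrome P450 panel screen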
[3] = target: T1, Cytochrome P450 1A2 (Homo sapiens, UniProt P05177)
T1 sequence (P05177 whole entry): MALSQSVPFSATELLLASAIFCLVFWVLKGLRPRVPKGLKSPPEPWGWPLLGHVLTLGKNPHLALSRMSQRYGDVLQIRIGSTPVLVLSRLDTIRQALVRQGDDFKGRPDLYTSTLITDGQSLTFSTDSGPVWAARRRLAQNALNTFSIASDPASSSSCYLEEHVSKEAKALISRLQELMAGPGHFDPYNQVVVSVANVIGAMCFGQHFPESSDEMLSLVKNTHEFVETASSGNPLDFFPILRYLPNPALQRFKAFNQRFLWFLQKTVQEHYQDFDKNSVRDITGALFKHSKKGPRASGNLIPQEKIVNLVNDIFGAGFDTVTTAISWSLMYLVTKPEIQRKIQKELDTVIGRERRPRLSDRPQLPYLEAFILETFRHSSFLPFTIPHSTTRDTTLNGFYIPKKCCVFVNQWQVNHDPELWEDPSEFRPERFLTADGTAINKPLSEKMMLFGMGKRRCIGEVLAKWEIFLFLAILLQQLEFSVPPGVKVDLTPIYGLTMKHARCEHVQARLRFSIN

[4] = target: Cytochrome P450 2C9 (Homo sapiens, UniProt P11712)
[5] = tested on: Streptococcus sp. 'group A'; experiment: Streptococcus pyogenes SK(-)GAS viability under kanamycin – luminescence, BacTiterGlo, confirmation, counter-screen for streptokinase expression inhibitor project, dose response (AID 1900); assay type: functional, organism-based
[6] = target: T2, Streptokinase A (Streptococcus pyogenes serotype M1, UniProt P10520); experiment: viability-normalized secreted streptokinase activity reduction – plasminogen activation absorbance, OD405, dose response (AID 1914); assay type: functional, Streptococcus pyogenes M1 GAS;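 further: secreted streptokinase activity via plasminogen activation per viability signal from cell pellet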
T2 sequence (P10520 whole entry): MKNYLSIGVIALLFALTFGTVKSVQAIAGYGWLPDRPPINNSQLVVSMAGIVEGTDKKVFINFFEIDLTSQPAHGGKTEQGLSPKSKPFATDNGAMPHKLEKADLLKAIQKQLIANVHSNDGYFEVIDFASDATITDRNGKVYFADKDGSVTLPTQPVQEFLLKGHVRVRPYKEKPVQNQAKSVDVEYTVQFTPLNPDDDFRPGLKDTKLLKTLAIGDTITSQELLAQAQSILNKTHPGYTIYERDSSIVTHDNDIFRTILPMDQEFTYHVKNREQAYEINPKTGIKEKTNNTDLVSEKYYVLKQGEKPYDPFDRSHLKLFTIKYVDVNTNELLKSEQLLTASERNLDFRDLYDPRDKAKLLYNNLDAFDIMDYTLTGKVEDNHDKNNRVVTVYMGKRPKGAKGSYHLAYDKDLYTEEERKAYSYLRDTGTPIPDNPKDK

[7] = tested on: Streptococcus; experiment: GAS UMAA2166 growth inhibition – luminescence, BacTiterGlo, counter-screen for streptokinase expression inhibitor project, dose response (AID 1915); assay type: functional, organism-based;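 further: potency for reduction of bacterial viability or growth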
[8] = Luminescence Cell-Based Dose Retest to Confirm Inhibitors of Cancer Stem Cells. [Related pubchem assays (depositor defined):AID2717, AID2721]; assay type: functional; details: Homo sapiens
[9] = target: T3, Corticotropin-releasing factor receptor 2/Corticotropin-releasing factor-binding protein (Homo sapiens, UniProt P24387+Q13324); experiment: activators of CRF receptor 2 with binding protein – uHTS hits, confirmation (AID 602473); assay type: functional; details: read-out: EC50_Mean
T3 sequence (Q13324 whole entry): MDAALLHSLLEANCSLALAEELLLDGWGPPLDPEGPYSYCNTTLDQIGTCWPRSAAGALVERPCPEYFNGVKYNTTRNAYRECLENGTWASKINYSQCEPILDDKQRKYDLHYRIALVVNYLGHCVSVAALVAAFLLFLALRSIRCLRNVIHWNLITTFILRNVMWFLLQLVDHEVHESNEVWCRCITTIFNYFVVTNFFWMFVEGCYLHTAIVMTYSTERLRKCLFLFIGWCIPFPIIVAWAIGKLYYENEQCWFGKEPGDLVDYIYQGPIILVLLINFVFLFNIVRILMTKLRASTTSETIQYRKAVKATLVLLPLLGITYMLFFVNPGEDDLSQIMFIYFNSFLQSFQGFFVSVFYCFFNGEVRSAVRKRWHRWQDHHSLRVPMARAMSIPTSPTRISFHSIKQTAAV
T3 sequence (P24387 whole entry): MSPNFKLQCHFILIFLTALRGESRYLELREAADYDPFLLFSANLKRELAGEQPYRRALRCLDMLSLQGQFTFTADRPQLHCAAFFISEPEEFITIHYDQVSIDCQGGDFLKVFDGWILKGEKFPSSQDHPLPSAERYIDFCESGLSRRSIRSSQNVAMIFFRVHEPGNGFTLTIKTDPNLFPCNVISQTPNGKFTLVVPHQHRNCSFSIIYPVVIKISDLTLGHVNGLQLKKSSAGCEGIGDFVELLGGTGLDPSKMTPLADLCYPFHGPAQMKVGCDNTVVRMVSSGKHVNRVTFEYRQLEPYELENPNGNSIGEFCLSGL

Cytochrome P450 3A4, sequence (P08684 whole entry): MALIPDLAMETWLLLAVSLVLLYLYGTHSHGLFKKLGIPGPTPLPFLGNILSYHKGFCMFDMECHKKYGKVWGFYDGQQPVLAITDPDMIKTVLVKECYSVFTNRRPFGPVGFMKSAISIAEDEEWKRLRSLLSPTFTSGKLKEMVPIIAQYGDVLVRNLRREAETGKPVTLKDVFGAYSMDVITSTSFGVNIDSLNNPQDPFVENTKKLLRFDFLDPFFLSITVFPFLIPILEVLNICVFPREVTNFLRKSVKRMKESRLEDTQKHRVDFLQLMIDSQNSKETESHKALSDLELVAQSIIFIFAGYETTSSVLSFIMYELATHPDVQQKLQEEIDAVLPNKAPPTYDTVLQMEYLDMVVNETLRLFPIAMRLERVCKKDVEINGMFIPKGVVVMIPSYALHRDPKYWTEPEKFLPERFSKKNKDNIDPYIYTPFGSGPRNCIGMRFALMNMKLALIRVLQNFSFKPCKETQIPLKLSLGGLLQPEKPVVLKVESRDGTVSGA
Cytochrome P450 2C9, sequence (P11712 whole entry): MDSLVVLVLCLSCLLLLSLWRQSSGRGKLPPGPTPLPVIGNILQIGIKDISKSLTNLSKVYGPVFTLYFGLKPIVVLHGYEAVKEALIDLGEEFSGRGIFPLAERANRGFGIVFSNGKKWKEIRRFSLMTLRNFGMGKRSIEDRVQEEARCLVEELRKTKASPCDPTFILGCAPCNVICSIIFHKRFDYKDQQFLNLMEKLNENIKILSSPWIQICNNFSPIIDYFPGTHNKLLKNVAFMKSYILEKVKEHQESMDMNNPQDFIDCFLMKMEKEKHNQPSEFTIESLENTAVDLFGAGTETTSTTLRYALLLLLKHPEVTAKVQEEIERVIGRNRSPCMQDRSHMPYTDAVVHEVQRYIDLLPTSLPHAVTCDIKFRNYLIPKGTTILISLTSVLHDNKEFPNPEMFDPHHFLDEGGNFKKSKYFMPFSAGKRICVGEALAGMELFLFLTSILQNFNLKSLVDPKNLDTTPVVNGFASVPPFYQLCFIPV
Cytochrome P450 2C19, sequence (P33261 whole entry): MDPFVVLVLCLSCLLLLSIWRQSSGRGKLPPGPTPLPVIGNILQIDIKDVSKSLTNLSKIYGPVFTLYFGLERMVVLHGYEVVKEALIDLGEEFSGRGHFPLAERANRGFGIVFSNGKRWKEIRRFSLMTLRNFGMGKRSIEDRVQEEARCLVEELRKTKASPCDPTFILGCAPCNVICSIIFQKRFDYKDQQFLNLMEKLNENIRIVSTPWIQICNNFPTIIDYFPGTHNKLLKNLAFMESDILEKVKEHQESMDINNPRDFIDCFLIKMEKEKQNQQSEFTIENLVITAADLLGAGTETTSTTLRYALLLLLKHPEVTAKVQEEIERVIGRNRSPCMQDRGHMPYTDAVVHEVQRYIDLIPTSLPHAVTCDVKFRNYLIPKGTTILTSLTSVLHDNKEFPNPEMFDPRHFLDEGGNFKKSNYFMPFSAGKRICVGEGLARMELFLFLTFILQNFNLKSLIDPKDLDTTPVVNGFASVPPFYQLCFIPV

Structure (SMILES) | AC50 ([1]; read-out: AC50) | AC50 [4] | EC50 [5] | EC50 [6] | EC50 [7] | other results
CCN1CN=C(S)N(c2cc(C)ccc2C)C1 | 39.8 µM (inconclusive) | – | – | – | – | AC50 [2]: 20 µM (inconclusive)
CN(Cc1cc2ccccc2[nH]c1=O)S(C)(=O)=O | – | – | – | – | – | AC50 [3]: 28.2 µM (inconclusive)
O=C(COc1ccc([N+](=O)[O-])cc1)NCc1ccccc1 | 7.94 µM (inconclusive) | 17.8 µM (inconclusive) | – | – | – | –
CS(=O)(=O)Nc1ccc(Cc2noc(-c3ccc4[nH]cc(CCN)c4c3)n2)cc1 [L-694247] | – | 31.6 µM (inconclusive) | – | – | – | –
CC(C)(C)C(=O)Nc1cccc(-c2nc3ccccc3c(=O)o2)c1 | 35.5 µM (inconclusive) | – | – | – | – | AC50 [2]: 25.1 µM (inconclusive)
COCCn1c(=O)c(-c2ccc(F)cc2)nc2cnc(Oc3ccccc3)nc21 | – | 10 µM (inconclusive) | – | – | – | AC50 [2]: 15.8 µM (inconclusive)
O=C1C[C@H](c2ccccc2)[C@@H](c2ccc(Br)cc2)O1 | – | 3.16 µM (inconclusive) | – | – | – | –
O=C(Nc1cccnc1)c1ccc2snnc2c1 | 17.8 µM (inconclusive) | 25.1 µM (inconclusive) | – | – | – | –
COC(=O)c1ccc(C(=O)OC)c(NC(=O)CN(C)Cc2cccc(Cl)c2Cl)c1 | – | – | 11.2 µM (active) | 13.9 µM (active) | > 150 µM (not active) | –
O=C(CN1c2ccccc2Sc2ccccc21)NNC(=O)Nc1ccc(Cl)c(Cl)c1 | – | – | 2.45 µM (active) | > 150 µM (not active) | 5.49 µM (active) | AC50 [8]: 3.05 µM (active)
CCOc1ccc(-c2nnc3ccc(SC(C)C)nn23)cc1 | – | – | 2.79 µM (active) | > 150 µM (not active) | 22.9 µM (active) | –
Cc1cc(S(=O)(=O)c2cc3ccc(O)c(C)c3oc2=O)ccc1F | – | – | – | – | – | EC50 [9]: 5.8 µM (active)
CCOC(=O)c1c(C)n(C)c2ccc(OC(=O)c3ccco3)cc12 | – | 1.12 µM (inconclusive) | – | – | – | –
O=C(CN1CCCC1)Nc1ccc(NC(=O)Nc2ccccc2)cc1 | – | – | > 150 µM (not active) | > 150 µM (not active) | > 150 µM (not active) | –
C=CCNC(=O)CC(=O)N/N=C/c1cccc(Br)c1 | 0.2 µM (inconclusive) | – | – | – | – | –
Cc1cc(=O)oc2c3c(cc(OCC(=O)NC4CC4)c12)OC(C)(C)CC3 | – | – | > 150 µM (not active) | > 150 µM (not active) | > 150 µM (not active) | –
O=C(O)C1CCCN1C(=O)OCc1ccccc1 (stereo not given) | 15.8 µM (inconclusive) | – | – | – | – | –
O=c1cnc2cncnc2n1Cc1ccc(F)cc1 | 39.8 µM (inconclusive) | – | – | – | – | AC50 [2]: 20 µM (inconclusive)
O=C(/C=C/c1ccccc1)NCCc1ccccc1 | – | – | > 150 µM (not active) | 48.7 µM (active) | > 150 µM (not active) | –
CC(C)NC[C@@H](O)c1ccc(O)c2ncccc12 | – | – | – | – | – | AC50 [1]: inconclusive
CC(C)Oc1ccc(C(=O)Nc2nnc(C3=COCCO3)o2)cc1 | – | – | 0.766 µM (active) | > 150 µM (not active) | 14.8 µM (active) | –
CC(=O)Nc1cccc(C(=O)OCc2ccc(C(=O)Oc3ccc(Cl)cc3)cc2)c1 | – | 1.12 µM (inconclusive) | – | – | – | –
C[C@H]1C2=C3C(CC[C@H]4C(OCc5ccc(F)cc5C(F)(F)F)OC[C@](C)([C@@H]34)N(C(=O)OC(C)(C)C)C2)C(CO)C1CO (stereo not given in full) | 39.8 µM (inconclusive) | 39.8 µM (inconclusive) | – | – | – | –
